Results published in patent US20250387437A1, “PHARMACEUTICAL COMPOSITION FOR PREVENTING OR TREATING ALOPECIA INCLUDING AKKERMANSIA” (priority 2022, published 2025).

Experiments:
[1] = system: hair follicles of alopecia-induced C57BL/6 mice; experiment: Histological change in mouse hair follicles (hematoxylin-eosin staining); type: in vivo; settings: skin tissue collected at week 5, H&E, optical microscope, FIGS. 5a-b
Description: (§1) The animal experiment was carried out in compliance with the Animal use and Care Protocol of the Institutional Animal Care and Use Committee (IACUC). Seven-week-old male C57BL/6 mice were purchased and acclimated for 1 week, and then bred for 5 weeks. Regarding the breeding environment, the mice were bred at a constant temperature (22° C.) and relative humidity (40% to 60%) with a 12-hr light/12-hr dark cycle. A chow diet was fed to all experimental groups. […] In order to make an alopecia model, 0.5 mg/day of testosterone was subcutaneously injected to mice in all experimental groups. A group in which alopecia was induced by testosterone administration was used as a negative control group, and finasteride was orally administered at 0.5 mg/kg/day as a positive control group. In the groups in which live bacteria and killed bacteria of the genus Akkermansia of the present invention are administrated, PBS containing L-cysteine and glycerol was orally administered as a vehicle. [table] In order to confirm the morphological change of male C57BL/6 mouse hair follicles, skin tissues collected at week 5 after transdermal administration were stained with hematoxylin-eosin and observed with an optical microscope to confirm the number of hair follicles, and the results are shown in FIGS. 5a and 5b.

[2] = system: alopecia-induced mice (testosterone); experiment: Confirmation of mouse hair growth through photograph; type: in vivo; settings: testosterone 0.5 mg/day s.c. alopecia model, male C57BL/6 mice, daily treatment for 5 weeks, FIG. 1
Description: The animal experiment was carried out in compliance with the Animal use and Care Protocol of the Institutional Animal Care and Use Committee (IACUC). Seven-week-old male C57BL/6 mice were purchased and acclimated for 1 week, and then bred for 5 weeks. Regarding the breeding environment, the mice were bred at a constant temperature (22° C.) and relative humidity (40% to 60%) with a 12-hr light/12-hr dark cycle. A chow diet was fed to all experimental groups.
In order to make an alopecia model, 0.5 mg/day of testosterone was subcutaneously injected to mice in all experimental groups. A group in which alopecia was induced by testosterone administration was used as a negative control group, and finasteride was orally administered at 0.5 mg/kg/day as a positive control group. In the groups in which live bacteria and killed bacteria of the genus Akkermansia of the present invention are administrated, PBS containing L-cysteine and glycerol was orally administered as a vehicle.
For the mice in each experimental group, the degree of hair growth was observed through photographing hair. […] From the left side, there are the results of the negative control group (Testosterone), the positive control group (T+Finasteride), the Akkermansia muciniphila live bacteria-administered group (T+EB-AMDK19), and the Akkermansia muciniphila killed bacteria-administered group (T+EB-AMDK19 HI). […]

[3] = system: alopecia-induced mice (testosterone); experiment: Hair growth length increase effect; type: in vivo, C57BL/6 mice; settings: after the 5-week experiment, average per group, FIGS. 2a-b
Description: as §1, with “[table] After the 5-week experiment was completed, the hair length was measured for individuals in each experimental group” for “[table] In order”, “to calculate” for “to confirm the morphological change of male C57BL/6 mouse hair follicles, skin tissues collected at week 5 after transdermal administration were stained with hematoxylin-eosin and observed with”, “an average value,” for “an optical microscope to confirm the number of hair follicles,”, “results of the hair growth length increase effect experiment” for “results”, “shown as a graph” for “shown”, “in FIG. 2.” for “in FIGS. 5a and 5b.”

CC(C)(C)NC(=O)[C@H]1CC[C@H]2[C@@H]3CC[C@H]4NC(=O)C=C[C@]4(C)[C@H]3CC[C@]12C [finasteride] was tested, and the “number of telogen hair follicles compared to the negative control group” value [1] was “increased”, the “hair growth / regrowth in hair loss regions (photograph)” value [2] was “almost all regions thereof were changed to black at week 5” and the “skin color change in hair loss regions of the back (photograph)” value [2] was “skin color was darkened from week 3 of treatment”. The “hair length, comparison between treated groups” value [3] was “showed similar patterns”.
